Where two headings read alike, the source gives them in different places.
Experiments:
[1] = molecular target: T1, mRORγ LBD (Mus musculus, UniProt P51450); test: Biochemical assay, coregulatory peptide recruitment to GST-RORγ LBD (FRET)
T1 construct: made in house; host or cells: Sf9 insect cells, baculovirus; cleared lysate used directly
T1 sequence (P51450 251-516): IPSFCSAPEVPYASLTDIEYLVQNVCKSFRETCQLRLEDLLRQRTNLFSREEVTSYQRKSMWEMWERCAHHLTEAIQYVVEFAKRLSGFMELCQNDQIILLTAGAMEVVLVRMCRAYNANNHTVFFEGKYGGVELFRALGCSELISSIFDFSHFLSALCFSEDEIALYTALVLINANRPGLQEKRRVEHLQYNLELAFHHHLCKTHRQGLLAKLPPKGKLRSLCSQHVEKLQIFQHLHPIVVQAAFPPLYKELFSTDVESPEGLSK
Text: GST-RORγ was generated by subcloning the RORγ-LBD into pET-41a, a vector which expresses GST fusion proteins in bacteria.
The cloning steps for GST-RORγ were as follows. The mRORγ LBD was excised from Gal4-mRORγ (see above for cloning steps) at BamHI and HindIII sites of Sequence 1 and cloned into the corresponding sites of pET-41a(+) (EMD Biosciences, San Diego, Calif.). A GST-mRORγ fragment was then excised from pET-41a(+) at XbaI and XhoI sites and cloned into a pcDNA3.1vector (Invitrogen, Carlsbad, Calif.) restricted at NheI and XhoI sites. Plasmid GST-mRORγ-pcDNA3.1 was used as a PCR template to generate a GST-mRORγ fragment that was later cloned into pENTR/D-TOPO vector (Invitrogen, Carlsbad, Calif.) by standard cloning techniques recommended by the manufacturer of the vector. The nucleotide sequence of GST-mRORγ is shown below:
For baculoviral expression of RORγ, the cDNA fragment of GST-RORγ— LBD, was subcloned from pET-41a into the pENTR/D-TOPO vector using a commercially-available kit (BaculoDirect, Invitrogen). Briefly, GST-RORγ carried by pENTR/D-TOPO was transfected into mono-layer Sf9 cells (8×10^5/well in 6-well plates) by Cellfectin (Invitrogen). Sf9 cells were incubated at 27° C. in a non-humidified incubator for 72 hours. Cell media was collected as P1 viral stock and used to further infect Sf9 cells to generate P2 and P3 virus. […] A plaque assay was performed to determine the titer of P3 virus and to isolate single plaques. P4 virus was generated from a single plaque and propagated on a larger scale.
Adherent SF9 cells were infected with baculovirus carrying GST-RORγ and were cultured for 72 hours. Sf9 cell were then subject to a brief sonication in a lysis buffer (20 mM phosphate, pH 6.8, 50 mM KCl, 50 mM NaCl, 0.5 mM EDTA, 50% glycerol, 0.001% NP-40 and 1 mM DTT) and centrifuged at 3000 rpm for 15 minutes. […] Cleared cell lysate was stored at −70° C. and is directly utilized in the coregulatory peptide recruitment assay.
The labeled probes anti-GST-APC and SA-RPE were purchased from Prozyme (San Leandro, Calif.). Compounds were added directly from a DMSO solution to a final concentration of 1-2% DMSO. Fluorescence was measured on a Wallac Victor 2 V plate reader equipped with a 670/40 nm filter (Omega Optical, Brattleboro, Vt.) for APC emission (Channel A) and a 600/25 bandpass filter for monitoring the RPE emission (Channel B).

[2] = molecular target: T2, mRORγ (Mus musculus, UniProt P51450); test: Transcriptional assay, Gal4-mRORγ with luciferase reporter in CHO cells; assay type: cell-based
T2 construct: expressed in transfected cells; host or cells: CHO cells, transient transfection
Description: The complete Gal4-mRORγ nucleotide sequence is shown below:
(§1) A firefly luciferase reporter gene for Gal4 DBD hybrid receptors, such as Gal4-RORγ, contains five copies of the Gal4 17-mer response element in its promoter and the coding sequence for firefly luciferase (pG5-luc, Promega). CHO (Chinese Hamster Ovary) cells were cultured in Ham's F12 medium supplemented with 10% fetal calf serum (Gemini Biologicals), 10 μg/ml penicillin and streptomycin, and were maintained in a humidified 37° C. incubator (Thermo Electron, Steri-Cycle) with 5% CO2. 24 hours before transfection, cells were plated in T175 flasks (5×10^6 cells/flask) or T75 flasks (1.7×10^6 cells/flask). Transient transfection of CHO cells was performed using TransIT-CHO reagents (Minis, Madison, Wis.) with a mixing ratio of 2:6:1 between plasmid DNA (in μg), TransIT-CHO (in μl) and CHO-mojo (in μl).
(§2) Plates are maintained at 37° C. in a humidified atmosphere with 7% CO2 overnight. Four (4) hours after cell seeding, compounds dissolved in DMSO at 10 mM were added to cells at final concentrations of 20 micromolar (μM) to 20 nanomolar (nM) in 0.2% DMSO in triplicate plates. Approximately 40 hours later, cytotoxicity in the assay well was characterized by addition of the dye resazurin (O'Brien, Wilson et al. 2000) to a final concentration of 3 μM. […] Percent viability was determined as 2 hour fluorescence, minus background at t=0 hours, normalized to DMSO controls. For detection of luciferase activity, media was removed from plates after the measurement of resazurin conversion, and SteadyLite luciferase reagent (Perkin-Elmer) was added (30 μl/well). Luminescence is detected with a Victor 2-V plate reader (Perkin-Elmer) and normalized to luciferase activity of DMSO control wells alone.

[3] = molecular target: T3, human RORγ (Homo sapiens, UniProt P51449); test: Transcriptional assay of human RORγ (Gal4-hRORγ); assay type: cell-based; details: Table 4B
T3 construct: expressed in transfected cells; host or cells: CHO cells, transient transfection
T3 sequence (P51449 253-518): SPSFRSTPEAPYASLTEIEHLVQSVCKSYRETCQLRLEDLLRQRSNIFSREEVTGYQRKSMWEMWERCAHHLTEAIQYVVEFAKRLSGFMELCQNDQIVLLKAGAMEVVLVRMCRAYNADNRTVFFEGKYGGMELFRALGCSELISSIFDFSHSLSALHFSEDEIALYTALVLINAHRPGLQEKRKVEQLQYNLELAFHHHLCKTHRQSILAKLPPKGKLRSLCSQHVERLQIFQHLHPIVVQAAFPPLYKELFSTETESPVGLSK
Description: The complete Gal4-hRORγ nucleotide sequence is shown below:
as §1, §2

[4] = molecular target: T4, hPPARα (Homo sapiens, UniProt Q07869); test: Crossreactive receptor transcriptional assay (Gal4 hybrid); assay type: cell-based; details: activity of standard ligand at 20 μM
T4 construct: 166-468; expressed in transfected cells; host or cells: CHO cells, transient transfection
T4 sequence (Q07869 166-468): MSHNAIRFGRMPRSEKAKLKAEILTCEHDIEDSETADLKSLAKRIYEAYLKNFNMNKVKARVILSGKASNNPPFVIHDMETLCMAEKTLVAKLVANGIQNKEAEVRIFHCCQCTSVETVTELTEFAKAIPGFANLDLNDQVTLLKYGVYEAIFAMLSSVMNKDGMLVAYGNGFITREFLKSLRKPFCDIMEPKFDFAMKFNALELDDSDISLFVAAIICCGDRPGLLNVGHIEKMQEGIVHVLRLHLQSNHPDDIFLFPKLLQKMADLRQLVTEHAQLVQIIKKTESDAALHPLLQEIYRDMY
Description: as §1, §2

[5] = test system: TH-17 cell differentiation from naïve CD4+ T cells; test: Differentiation of naïve CD4+ T cells, intracellular IL-17/IFN-γ staining by FACS (TH-17 protocol, TGFβ + IL-6); assay type: cell-based, mouse; details: Table 8, naïve CD4 cells, 5 days, mean ±SD
[6] = molecular target: T5, mLXRα (Liver X receptor alpha) (Mus musculus, UniProt Q9Z0Y9); test: Transcriptional assay of LXRα (Gal4-LXRα hybrid); assay type: cell-based
T5 construct: 172-455; expressed in transfected cells; host or cells: CHO cells, transient transfection
T5 sequence (Q9Z0Y9 172-445 limits assumed): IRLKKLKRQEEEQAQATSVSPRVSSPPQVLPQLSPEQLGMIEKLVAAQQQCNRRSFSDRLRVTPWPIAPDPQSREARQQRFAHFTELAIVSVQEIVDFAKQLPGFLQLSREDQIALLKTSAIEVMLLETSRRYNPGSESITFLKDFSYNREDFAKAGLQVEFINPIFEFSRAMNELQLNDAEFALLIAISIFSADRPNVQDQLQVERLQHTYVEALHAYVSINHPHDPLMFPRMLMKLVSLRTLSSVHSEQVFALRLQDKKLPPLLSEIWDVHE
Description: as §1, §2
A transcriptional assay for LXRα, using a Gal4-LXRα hybrid, was implemented in order to compare RORγ ligand potencies. In addition to LXRα, transcriptional assays for a number of other major nuclear receptors were developed.

[7] = molecular target: T6, hPR (progesterone receptor) (Homo sapiens, UniProt P06401); test: Crossreactive receptor transcriptional assay (Gal4 hybrid); assay type: cell-based; details: activity of standard ligand at 20 μM
T6 construct: 687-933; expressed in transfected cells; host or cells: CHO cells, transient transfection
T6 sequence (P06401 687-933): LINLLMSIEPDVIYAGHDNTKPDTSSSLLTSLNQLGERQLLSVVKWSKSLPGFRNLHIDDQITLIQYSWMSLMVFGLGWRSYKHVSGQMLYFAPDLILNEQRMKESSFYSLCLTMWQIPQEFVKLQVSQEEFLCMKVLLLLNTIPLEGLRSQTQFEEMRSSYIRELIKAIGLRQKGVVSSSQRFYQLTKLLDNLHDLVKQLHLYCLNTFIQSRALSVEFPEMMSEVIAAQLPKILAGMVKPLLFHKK
Description: as §1, §2

[8] = Table 4A, peptide K1, no agonist present, medians of two or more assays, unit inferred, read-out: EC50 Biochemical
[9] = Table 4A, medians of two or more assays, unit inferred, read-out: EC50 Transcriptional
[10] = Table 1, mRORγ and peptide K1, read-out: Assay EC50 in micromolar at mRORγ Biochemical
[11] = Table 7, taken from Table 1 (peptide K1), read-out: Assay EC50 in micromolar at mRORγ Biochemical
[12] = Table 7, no unit printed for this column (b114 gives 1.5 μM for OR-1050), read-out: Transcriptional Assay of LXRα EC50
[13] = Table 1, antagonists, inhibition of basal Gal4-mRORγ transcription in CHO cells, read-out: Assay EC50 in micromolar at mRORγ Transcriptional
[14] = Table 7, taken from Table 1, read-out: Assay EC50 in micromolar at mRORγ Transcriptional

T2 sequence (P51450 with tags, fused parts or gaps): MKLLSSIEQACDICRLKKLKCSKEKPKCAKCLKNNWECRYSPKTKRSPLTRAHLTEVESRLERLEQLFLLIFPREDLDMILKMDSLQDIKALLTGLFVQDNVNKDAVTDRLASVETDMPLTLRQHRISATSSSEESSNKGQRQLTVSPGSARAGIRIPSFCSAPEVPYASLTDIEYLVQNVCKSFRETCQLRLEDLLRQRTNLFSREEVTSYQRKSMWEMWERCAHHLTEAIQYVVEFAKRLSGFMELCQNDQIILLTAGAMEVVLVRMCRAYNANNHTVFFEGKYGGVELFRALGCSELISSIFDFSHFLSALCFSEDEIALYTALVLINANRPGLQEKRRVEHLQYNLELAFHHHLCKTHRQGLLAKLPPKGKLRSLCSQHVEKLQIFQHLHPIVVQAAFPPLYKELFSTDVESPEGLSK

## Cn1c(CNc2cccc(Cl)c2)nnc1SCC(=O)Nc1cccc2ccccc12 [OR-133167, 2-{5-[(3-Chloro-phenylamino)-methyl]-4-methyl-4H-[1,2,4]triazol-3-ylsulfanyl}N-naphthalen-1-yl-acetamide]
[1]; [8]
  EC50: 3.4 µM
[2]; [9]
  EC50: 3.3 µM
[3]
  EC50: 9.4 µM

## Cc1cccc(Nc2cc(Cl)nc(SCC(=O)O)n2)c1C [WY14643, reference compound]
[4]
  Efficacy at hPPARα: 6X

## CCn1c(CNc2cccc(C(F)(F)F)c2)nnc1SCC(=O)Nc1cccc2ccccc12 [OR-133099, 2-{4-Ethyl-5-[(3-trifluoromethyl-phenylamino)-methyl]-4H-[1,2,4]triazol-3-ylsulfanyl}N-naphthalen-1-yl-acetamide]
[1]; [8]
  EC50: 1.33 µM
[2]; [9]
  EC50: 1.04 µM
[3]
  EC50: 2.4 µM

## IL-6: exogenous cytokine used for TH-17 differentiation
[5]; 20 ng/ml
  IL-17 (%): 1.20 ± 0.04%

## CCn1c(CNc2cccc(Cl)c2)nnc1SCC(=O)Nc1cccc2ccccc12 [OR-133097, 2-{5-[(3-Chloro-phenylamino)-methyl]-4-ethyl-4H-[1,2,4]triazol-3-ylsulfanyl}N-naphthalen-1-yl-acetamide]
[1]; [8]
  EC50: 1.34 µM
[2]; [9]
  EC50: 1.44 µM
[3]
  EC50: 5 µM

## TGFβ1: exogenous cytokine used for TH-17 differentiation
[5]; 4 ng/ml
  IL-17 (%): 0.21 ± 0.02%

## CCN(c1ccc(C(O)(C(F)(F)F)C(F)(F)F)cc1)S(=O)(=O)c1ccc(C)cc1 [OR-1052, N-Ethyl-4-methyl-N-[4-(2,2,2-trifluoro-1-hydroxy-1-trifluoromethyl-ethyl)-phenyl]-benzenesulfonamide]
[1]; [10]
  EC50: 0.89 µM
[1]; [11]
  EC50: 0.89 µM
[6]
  Emax: > 80%
[6]; [12]
  EC50: 0.81 µM
[6]; comparison of transcriptional assays for RORγ and LXRα (Table 7)
  specificity for RORγ versus LXRα: more specific for RORγ than LXRα
[2]; [13]
  EC50: 0.21 µM
[2]; [14]
  EC50: 0.21 µM

## CCN(c1ccc(C(O)(C(F)(F)F)C(F)(F)F)cc1)S(=O)(=O)c1ccccc1 [OR-1031, N-Ethyl-N-[4-(2,2,2-trifluoro-1-hydroxy-1-trifluoromethyl-ethyl)-phenyl]-benzenesulfonamide]
[1]
  EC50: 3.5 µM
[6]
  EC50: 1.4 µM
  Emax: > 80%
[2]; Assay EC50 in micromolar at mRORγ Transcriptional, Table 1, antagonists, inhibition of basal Gal4-mRORγ transcription in CHO cells
  EC50: 1.4 µM
[2]; Assay EC50 in micromolar at mRORγ Transcriptional, Table 7, taken from Table 1
  EC50: 1.4 µM

## CCN(c1ccc(C(OC)(C(F)(F)F)C(F)(F)F)cc1)S(=O)(=O)c1ccccc1 [OR-1030, N-Ethyl-N-[4-(2,2,2-trifluoro-1-methoxy-1-trifluoromethyl-ethyl)-phenyl]-benzenesulfonamide]
[1]; [10]
  EC50: > 100 µM
[1]; [11]
  EC50: > 100 µM
[6]
  Emax: < 5%
[6]; [12]
  EC50: > 100 µM
[2]; [13]
  EC50: > 20 µM
[2]; [14]
  EC50: > 20 µM

## CC(=O)[C@H]1CC[C@H]2[C@@H]3CCC4=CC(=O)CC[C@]4(C)[C@H]3CC[C@]12C [Progesterone, progesterone, reference compound]
[7]
  Efficacy at hPR: 6X

## CCn1c(CNc2ccc(C)c(Cl)c2)nnc1SCC(=O)Nc1cccc2ccccc12 [OR-133171, 2-{5-[(3-Chloro-4-methyl-phenylamino)-methyl]-4-ethyl-4H-[1,2,4]triazol-3-ylsulfanyl}N-naphthalen-1-yl-acetamide]
[1]; [8]
  EC50: 0.44 µM
[2]; [9]
  EC50: 0.49 µM
[3]
  EC50: 1.7 µM

Reference: US8389739B1, “Modulators of retinoid-related orphan receptor gamma” (Orphagen Pharmaceuticals, priority 2006, dated 2013)
